Results from ChEMBL document CHEMBL5500356, “Design, synthesis, and biological evaluation of novel benzimidazole derivatives as anti-cervical cancer agents through PI3K/Akt/mTOR pathway and tubulin inhibition” (Eur J Med Chem, 2024).
One block for each molecule: values may come before it. Calls of active or inactive are those of the source. The rule behind the calls is not given here.

Assays:
[1] = Cytotoxicity against human L02 cells assessed as cell viability incubated for 48 hrs by MTT assay; assay type: toxicity, cell-based
[2] = tested on: Ca-Ski; test: Antiproliferative activity against human Ca-Ski cells assessed as cell viability incubated for 48 hrs by MTT assay; assay type: functional, cell-based
[3] = tested on: HeLa; test: Antiproliferative activity against human HeLa cells assessed as cell viability incubated for 48 hrs by MTT assay; assay type: functional, cell-based
[4] = Cytotoxicity against human HEK293T cells assessed as cell viability incubated for 48 hrs by MTT assay; assay type: toxicity, cell-based, HEK-293T
[5] = tested on: SiHa; test: Antiproliferative activity against human SiHa cells assessed as cell viability incubated for 48 hrs by MTT assay; assay type: functional, cell-based
[6] = tested on: SiHa; test: Induction of cell cycle arrest in human SiHa cells assessed as accumulation cells at G2/M phase at 8 uM measured after 24 hrs by flow cytometry (reference value: 5.24%); assay type: functional
[7] = Acute toxicity in AB-wild type zebrafish embryo assessed as mortalities at 200 uM measured after 96 hrs; set-up: species or system Danio rerio; details: in vivo, read-out: Activity
[8] = Acute toxicity in AB-wild type zebrafish embryo assessed as mortalities at 25 uM measured after 96 hrs; set-up: species or system Danio rerio; details: in vivo, read-out: Activity
[9] = tested on: SiHa; test: Induction of apoptosis in human SiHa cells assessed as late apoptotic cells at 4 uM incubated for 24 hr by flow cytometry based annexin V-FITC/PI double-staining analysis (reference value: 8.67%); assay type: functional
[10] = target: Serine/threonine-protein kinase mTOR (Homo sapiens) (UniProt P42345); test: Inhibition of mTOR phosphorylation in human SiHa cells at 4 to 16 uM incubated for 24 hrs by Western blot analysis; assay type: cell-based; details: dose 4-16 µM
[11] = target: T1, Tubulin (Homo sapiens) (UniProt P68371+Q9H4B7+P0DPH7+P68366+Q13509+Q71U36+P04350+Q3ZCM7+P07437+P68363+Q9BQE3+Q6PEY2+Q13885+Q9BVA1+Q9BUF5); test: Inhibition of tubulin polymerization in human SiHa cells incubated for 24 hrs by DAPI fluorescence staining assay; assay type: cell-based; details: dose 4-16 µM
[12] = Acute toxicity in AB-wild type zebrafish embryo assessed as mortalities at 50 uM measured after 96 hrs; set-up: species or system Danio rerio; details: in vivo, read-out: Activity
[13] = tested on: SiHa; test: Effect on Akt protein expression in human SiHa cells at 4 to 16 uM incubated for 24 hrs by Western blot analysis; assay type: functional, cell-based; details: dose 4-16 µM
[14] = Acute toxicity in AB-wild type zebrafish embryo assessed as malformation rate at 100 uM measured after 96 hrs; set-up: species or system Danio rerio; details: in vivo
[15] = tested on: SiHa; test: Induction of cell cycle arrest in human SiHa cells assessed as accumulation cells at G2/M phase at 16 uM measured after 24 hrs by flow cytometry (reference value: 5.24%); assay type: functional
[16] = tested on: SiHa; test: Induction of apoptosis in human SiHa cells assessed as early apoptotic cells at 16 uM incubated for 24 hr by flow cytometry based annexin V-FITC/PI double-staining analysis (reference value: 2.95%); assay type: functional
[17] = tested on: SiHa; test: Induction of cell cycle arrest in human SiHa cells assessed as accumulation cells at S phase at 4 uM measured after 24 hrs by flow cytometry (reference value: 14.31%); assay type: functional
[18] = tested on: SiHa; test: Induction of cell cycle arrest in human SiHa cells assessed as accumulation cells at G0/G1 phase at 8 uM measured after 24 hrs by flow cytometry (reference value: 80.45%); assay type: functional
[19] = tested on: SiHa; test: Induction of apoptosis in human SiHa cells assessed as early apoptotic cells at 4 uM incubated for 24 hr by flow cytometry based annexin V-FITC/PI double-staining analysis (reference value: 2.95%); assay type: functional
[20] = tested on: SiHa; test: Induction of cell cycle arrest in human SiHa cells assessed as accumulation cells at G2/M phase at 4 uM measured after 24 hrs by flow cytometry (reference value: 5.24%); assay type: functional
[21] = Acute toxicity in AB-wild type zebrafish embryo assessed as malformation rate at 50 uM measured after 96 hrs; set-up: species or system Danio rerio; details: in vivo
[22] = target: T1, Tubulin (Homo sapiens); test: Inhibition of tubulin formation in human SiHa cells incubated for 24 hrs by Western blot analysis; assay type: cell-based
[23] = tested on: SiHa; test: Induction of cell cycle arrest in human SiHa cells assessed as accumulation cells at S phase at 8 uM measured after 24 hrs by flow cytometry (reference value: 14.31%); assay type: functional
[24] = tested on: SiHa; test: Induction of apoptosis in human SiHa cells assessed as early apoptotic cells at 8 uM incubated for 24 hr by flow cytometry based annexin V-FITC/PI double-staining analysis (reference value: 2.95%); assay type: functional
[25] = tested on: SiHa; test: Induction of cell cycle arrest in human SiHa cells assessed as accumulation cells at S phase at 16 uM measured after 24 hrs by flow cytometry (reference value: 14.31%); assay type: functional
[26] = tested on: SiHa; test: Effect on mTOR protein expression in human SiHa cells at 4 to 16 uM incubated for 24 hrs by Western blot analysis; assay type: functional, cell-based; details: dose 4-16 µM
[27] = tested on: SiHa; test: Inhibition of PI3K phosphorylation in human SiHa cells at 4 to 16 uM incubated for 24 hrs by Western blot analysis; assay type: cell-based; details: dose 4-16 µM
[28] = Acute toxicity in AB-wild type zebrafish embryo assessed as malformation rate at 25 uM measured after 96 hrs; set-up: species or system Danio rerio; details: in vivo
[29] = tested on: SiHa; test: Induction of apoptosis in human SiHa cells assessed as late apoptotic cells at 8 uM incubated for 24 hr by flow cytometry based annexin V-FITC/PI double-staining analysis (reference value: 8.67%); assay type: functional
[30] = tested on: SiHa; test: Effect on PI3K protein expression in human SiHa cells at 4 to 16 uM incubated for 24 hrs by Western blot analysis; assay type: functional, cell-based; details: dose 4-16 µM
[31] = Acute toxicity in AB-wild type zebrafish embryo assessed as malformation rate at 12.5 uM measured after 96 hrs; set-up: species or system Danio rerio; details: in vivo
[32] = Acute toxicity in AB-wild type zebrafish embryo assessed as mortalities at 12.5 uM measured after 96 hrs; set-up: species or system Danio rerio; details: in vivo, read-out: Activity
[33] = tested on: SiHa; test: Induction of apoptosis in human SiHa cells assessed as late apoptotic cells at 16 uM incubated for 24 hr by flow cytometry based annexin V-FITC/PI double-staining analysis (reference value: 8.67%); assay type: functional
[34] = Acute toxicity in AB-wild type zebrafish embryo assessed as mortalities at 400 uM measured after 96 hrs; set-up: species or system Danio rerio; details: in vivo, read-out: Activity
[35] = Acute toxicity in AB-wild type zebrafish embryo assessed as malformation rate at 400 uM measured after 96 hrs; set-up: species or system Danio rerio; details: in vivo
[36] = Acute toxicity in AB-wild type zebrafish embryo assessed as mortalities at 100 uM measured after 96 hrs; set-up: species or system Danio rerio; details: in vivo, read-out: Activity
[37] = Acute toxicity in AB-wild type zebrafish embryo assessed as malformation rate at 200 uM measured after 96 hrs; set-up: species or system Danio rerio; details: in vivo
[38] = target: RAC-alpha serine/threonine-protein kinase (Homo sapiens) (UniProt P31749); test: Inhibition of Akt phosphorylation in human SiHa cells at 4 to 16 uM incubated for 24 hrs by Western blot analysis; assay type: cell-based; details: dose 4-16 µM
Chain of RAC-alpha serine/threonine-protein kinase (Homo sapiens) (P31749 whole entry): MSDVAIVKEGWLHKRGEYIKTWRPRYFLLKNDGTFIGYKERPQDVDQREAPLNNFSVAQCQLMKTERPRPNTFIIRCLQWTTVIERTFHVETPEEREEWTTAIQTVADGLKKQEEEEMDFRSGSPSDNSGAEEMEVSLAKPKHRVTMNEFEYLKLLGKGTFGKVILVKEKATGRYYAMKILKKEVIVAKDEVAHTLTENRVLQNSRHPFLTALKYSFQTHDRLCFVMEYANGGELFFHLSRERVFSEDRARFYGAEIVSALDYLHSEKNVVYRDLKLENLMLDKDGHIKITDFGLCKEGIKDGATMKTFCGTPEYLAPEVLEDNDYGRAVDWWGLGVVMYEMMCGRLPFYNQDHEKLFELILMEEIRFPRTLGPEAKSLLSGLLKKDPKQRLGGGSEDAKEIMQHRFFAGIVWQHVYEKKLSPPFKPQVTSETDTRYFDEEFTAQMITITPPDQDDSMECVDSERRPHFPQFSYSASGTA

[39] = tested on: SiHa; test: Induction of cell cycle arrest in human SiHa cells assessed as accumulation cells at G0/G1 phase at 16 uM measured after 24 hrs by flow cytometry (reference value: 80.45%); assay type: functional
[40] = tested on: SiHa; test: Induction of cell cycle arrest in human SiHa cells assessed as accumulation cells at G0/G1 phase at 4 uM measured after 24 hrs by flow cytometry (reference value: 80.45%); assay type: functional

Structure (SMILES): COc1cc(OC)c(-c2nc3cc(N4CCOCC4)c(C#Cc4ccccc4Cl)cc3[nH]2)cc1OC
- IC50 at 48 h [1]: 18.9 µM
- IC50 [2]: 22.5 µM
- IC50 [3]: 16.9 µM
- IC50 at 48 h [4]: 0.68 µM
- IC50 [5]: 24.4 µM

Structure (SMILES): COc1cc(OC)c(-c2nc3cc(N4CCOCC4)c(C#Cc4ccc(C(F)(F)F)cc4)cc3[nH]2)cc1OC
- IC50 at 48 h [1]: > 100 µM
- IC50 [2]: > 100 µM
- IC50 [3]: 29.3 µM
- IC50 at 48 h [4]: > 100 µM
- IC50 [5]: > 100 µM

Structure (SMILES): COc1cc(OC)c(-c2nc3cc(N4CCN(C)CC4)c(C#Cc4ccccc4Cl)cc3[nH]2)cc1OC
- IC50 at 48 h [1]: 2.04 µM
- IC50 [2]: 5.34 µM
- IC50 [3]: 2.96 µM
- IC50 at 48 h [4]: 4.55 µM
- IC50 [5]: 6.07 µM

Structure (SMILES): COc1cc(-c2nc3cc(N4CCN(C)CC4)c(C#Cc4ccccc4F)cc3[nH]2)cc(OC)c1OC
- Activity [6]: 8.92%
- mortality at 96 h, 200 µM [7]: 0%
- mortality at 96 h, 25 µM [8]: 0%
- IC50 at 48 h [1]: 21.1 µM
- Activity [9]: 8.49%
- inhibition [10]: Active
- inhibition [11]: Dose-Dependent Effect
- IC50 [2]: 7.24 µM
- mortality at 96 h, 50 µM [12]: 0%
- Activity [13]: inactive
- Activity [14]: 0%
- Activity [15]: 28.37%
- Activity [16]: 82.7%
- Activity [17]: 9.89%
- Activity [18]: 82.37%
- Activity [19]: 8.55%
- Activity [20]: 7.26%
- Activity [21]: 0%
- inhibition [22]: Dose-Dependent Effect
- Activity [23]: 8.71%
- Activity [24]: 66.56%
- Activity [25]: 16.33%
- Activity [26]: inactive
- IC50 [3]: 5.03 µM
- inhibition [27]: Active
- Activity [28]: 0%
- Activity [29]: 16.43%
- Activity [30]: inactive
- Activity [31]: 0%
- mortality at 96 h, 12.5 µM [32]: 0%
- Activity [33]: 15.86%
- IC50 at 48 h [4]: 24 µM
- mortality at 96 h, 400 µM [34]: 0%
- Activity [35]: 0%
- mortality at 96 h, 100 µM [36]: 0%
- Activity [37]: 0%
- IC50 [5]: 3.38 µM
- inhibition [38]: Active
- Activity [39]: 55.29%
- Activity [40]: 82.4%

Structure (SMILES): COc1cc(OC)c(-c2nc3cc(N4CCOCC4)c(C#Cc4ccccc4F)cc3[nH]2)cc1OC
- IC50 at 48 h [1]: 9.1 µM
- IC50 [2]: 11.5 µM
- IC50 [3]: 20.1 µM
- IC50 at 48 h [4]: 4.83 µM
- IC50 [5]: 27.2 µM

Structure (SMILES): Nc1cc(C(F)(F)F)c(-c2cc(N3CCOCC3)nc(N3CCOCC3)n2)cn1 [BUPARLISIB]
- IC50 at 48 h [1]: 59.2 µM
- IC50 [2]: 0.74 µM
- Activity [15]: 28.47%
- Activity [16]: 10.27%
- Activity [25]: 11.27%
- IC50 [3]: 9.06 µM
- Activity [33]: 7.83%
- IC50 at 48 h [4]: 6.11 µM
- mortality at 96 h, 400 µM [34]: 0%
- Activity [35]: 0%
- IC50 [5]: 11.9 µM
- Activity [39]: 62.27%

Continued, in another order:

- IC50 [3]: 3.45 µM
Structure (SMILES): COc1cc(-c2nc3cc(N4CCN(C)CC4)c(C#Cc4ccc(Cl)cc4)cc3[nH]2)cc(OC)c1OC
- IC50 at 48 h [1]: 2.07 µM
- IC50 [2]: 3.97 µM
- IC50 at 48 h [4]: 4.12 µM
- IC50 [5]: 5.49 µM

- IC50 [3]: 5.25 µM
Structure (SMILES): COc1cc(OC)c(-c2nc3cc(N4CCN(C)CC4)c(C#Cc4ccccc4)cc3[nH]2)cc1OC
- IC50 at 48 h [1]: 6.59 µM
- IC50 [2]: > 100 µM
- IC50 at 48 h [4]: 4.07 µM
- IC50 [5]: 6.16 µM

- IC50 [3]: 3.13 µM
Structure (SMILES): COc1cc(-c2nc3cc(N4CCN(C)CC4)c(C#Cc4ccc(C(F)(F)F)cc4)cc3[nH]2)cc(OC)c1OC
- IC50 at 48 h [1]: 2.3 µM
- IC50 [2]: 1.38 µM
- IC50 at 48 h [4]: 1.41 µM
- IC50 [5]: 6.54 µM

- IC50 [3]: 2.07 µM
Structure (SMILES): COc1ccc(C#Cc2cc3[nH]c(-c4cc(OC)c(OC)c(OC)c4)nc3cc2N2CCN(C)CC2)cc1
- IC50 at 48 h [1]: 2.29 µM
- IC50 [2]: 1.39 µM
- IC50 at 48 h [4]: 0.41 µM
- IC50 [5]: 3.13 µM

- IC50 [3]: 4.96 µM
Structure (SMILES): COc1cc(-c2nc3cc(N4CCN(C)CC4)c(C#Cc4ccccc4)cc3[nH]2)cc(OC)c1OC
- IC50 at 48 h [1]: 3.82 µM
- IC50 [2]: 4.34 µM
- IC50 at 48 h [4]: 1.2 µM
- IC50 [5]: 5.05 µM
